# ChEMBL document CHEMBL4390652, “Design, biological evaluation and X-ray crystallography of nanomolar multifunctional ligands targeting simultaneously acetylcholinesterase and glycogen synthase kinase-3” (Eur J Med Chem, 2019)
# Key:
# [1] = molecular target: AP2-associated protein kinase 1 (Homo sapiens) (UniProt Q2M2I8); test: Binding affinity to human wild-type AAK1 (G25 to L333 residues) expressed in bacterial expression system assessed as residual binding level at 10 uM by Kinomescan method relative to control
# [2] = molecular target: Atypical kinase COQ8B, mitochondrial (Homo sapiens) (UniProt Q96D53); test: Binding affinity to wild-type human full length ADCK4 (M1 to S544 residues) expressed in bacterial expression system assessed as residual binding level at 10 uM by Kinomescan method relative to control
# [3] = molecular target: Mitotic checkpoint serine/threonine-protein kinase BUB1 (Homo sapiens) (UniProt O43683); test: Binding affinity to wild-type human partial length BUB1 (Q724 to K1085 residues) expressed in mammalian expression system assessed as residual binding level at 10 uM by Kinomescan method relative to control
# [4] = molecular target: Calcium/calmodulin-dependent protein kinase type II subunit alpha (Homo sapiens) (UniProt Q9UQM7); test: Binding affinity to wild-type human partial length CAMK2A (M1 to K328 residues) expressed in bacterial expression system assessed as residual binding level at 10 uM by Kinomescan method relative to control
# [5] = molecular target: Calcium/calmodulin-dependent protein kinase type II subunit delta (Homo sapiens) (UniProt Q13557); test: Binding affinity to wild-type human partial length CAMK2D (M1 to E329 residues) expressed in bacterial expression system assessed as residual binding level at 10 uM by Kinomescan method relative to control
# [6] = molecular target: Death-associated protein kinase 2 (Homo sapiens) (UniProt Q9UIK4); test: Binding affinity to wild-type human full length DAPK2 (M1 to S370 residues) expressed in bacterial expression system assessed as residual binding level at 10 uM by Kinomescan method relative to control
# [7] = molecular target: Serine/threonine-protein kinase MRCK gamma (Homo sapiens) (UniProt Q6DT37); test: Binding affinity to wild-type human partial length DMPK2 (S46 to S408 residues) expressed in bacterial expression system assessed as residual binding level at 10 uM by Kinomescan method relative to control
# [8] = system: Epidermal growth factor receptor (Homo sapiens), P00533 [G719C]; test: Binding affinity to human partial length EGFR G719C mutant (R669 to V1011 residues) expressed in bacterial expression system assessed as residual binding level at 10 uM by Kinomescan method relative to control
# [9] = system: Epidermal growth factor receptor (Homo sapiens), P00533 [UNDEFINED MUTATION]; test: Binding affinity to human partial length EGFR S752-I759del mutant expressed in bacterial expression system assessed as residual binding level at 10 uM by Kinomescan method relative to control
# [10] = molecular target: Fibroblast growth factor receptor 4 (Homo sapiens) (UniProt P22455); test: Binding affinity to wild-type human partial length FGFR4 (G402 to E713 residues) expressed in bacterial expression system assessed as residual binding level at 10 uM by Kinomescan method relative to control
# [11] = system: Receptor-type tyrosine-protein kinase FLT3 (Homo sapiens), P36888 [UNDEFINED MUTATION]; test: Binding affinity to human partial length FLT3 ITD/D835V double mutant expressed in bacterial expression system assessed as residual binding level at 10 uM by Kinomescan method relative to control
# [12] = system: Receptor-type tyrosine-protein kinase FLT3 (Homo sapiens), P36888 [UNDEFINED MUTATION]; test: Binding affinity to human partial length FLT3 ITD/F691L double mutant expressed in bacterial expression system assessed as residual binding level at 10 uM by Kinomescan method relative to control
# [13] = molecular target: Tyrosine-protein kinase FRK (Homo sapiens) (UniProt P42685); test: Binding affinity to wild-type human partial length FRK (A215 to F503 residues) expressed in bacterial expression system assessed as residual binding level at 10 uM by Kinomescan method relative to control
# [14] = molecular target: Inhibitor of nuclear factor kappa-B kinase subunit beta (Homo sapiens) (UniProt O14920); test: Binding affinity to wild-type human full length IKK-beta (M1 to S756 residues) expressed in mammalian expression system assessed as residual binding level at 10 uM by Kinomescan method relative to control
# [15] = molecular target: Serine/threonine-protein kinase 24 (Homo sapiens) (UniProt Q9Y6E0); test: Binding affinity to wild-type human partial length MST3 (A30 to S311 residues) expressed in bacterial expression system assessed as residual binding level at 10 uM by Kinomescan method relative to control
# [16] = molecular target: Serine/threonine-protein kinase PAK 6 (Homo sapiens) (UniProt Q9NQU5); test: Binding affinity to wild-type human partial length PAK6 (N298 to C681 residues) expressed in bacterial expression system assessed as residual binding level at 10 uM by Kinomescan method relative to control
# [17] = molecular target: Phosphorylase b kinase gamma catalytic chain, skeletal muscle/heart isoform (Homo sapiens) (UniProt Q16816); test: Binding affinity to wild-type human full length PHKG1 (M1 to Y387 residues) expressed in bacterial expression system assessed as residual binding level at 10 uM by Kinomescan method relative to control
# [18] = molecular target: Phosphatidylinositol 4-phosphate 5-kinase type-1 gamma (Homo sapiens) (UniProt O60331); test: Binding affinity to wild-type human partial length PIP5K1C (M1 to T668 residues) expressed in mammalian expression system assessed as residual binding level at 10 uM by Kinomescan method relative to control
# [19] = molecular target: Serine/threonine-protein kinase D3 (Homo sapiens) (UniProt O94806); test: Binding affinity to wild-type human partial length PRKD3 (S543 to E863 residues) expressed in bacterial expression system assessed as residual binding level at 10 uM by Kinomescan method relative to control
# [20] = molecular target: Ribosomal protein S6 kinase alpha-1 (Homo sapiens) (UniProt Q15418); test: Binding affinity to wild-type human partial length N-terminal RSK1 Kinase domain 1 (M1 to E388 residues) expressed in bacterial expression system assessed as residual binding level at 10 uM by Kinomescan method relative to control
# [21] = molecular target: Ribosomal protein S6 kinase alpha-6 (Homo sapiens) (UniProt Q9UK32); test: Binding affinity to wild-type human partial length C-terminal RSK4 kinase domain 2 (I401 to Y711 residues) expressed in bacterial expression system assessed as residual binding level at 10 uM by Kinomescan method relative to control
# [22] = molecular target: Serine/threonine-protein kinase 33 (Homo sapiens) (UniProt Q9BYT3); test: Binding affinity to wild-type human full length STK33 (M1 to L514 residues) expressed in bacterial expression system assessed as residual binding level at 10 uM by Kinomescan method relative to control
# [23] = molecular target: BDNF/NT-3 growth factors receptor (Homo sapiens) (UniProt Q16620); test: Binding affinity to wild-type human partial length TRKB (Q547 to G838 residues) expressed in mammalian expression system assessed as residual binding level at 10 uM by Kinomescan method relative to control
# [24] = molecular target: Serine/threonine-protein kinase 25 (Homo sapiens) (UniProt O00506); test: Binding affinity to wild-type human partial length YSK1 (V14 to H295 residues) expressed in bacterial expression system assessed as residual binding level at 10 uM by Kinomescan method relative to control
# Receptor-type tyrosine-protein kinase FLT3 (Homo sapiens), P36888 [UNDEFINED MUTATION], sequence (P36888 whole entry, looked up, stated change not applied, the tested form may be a part): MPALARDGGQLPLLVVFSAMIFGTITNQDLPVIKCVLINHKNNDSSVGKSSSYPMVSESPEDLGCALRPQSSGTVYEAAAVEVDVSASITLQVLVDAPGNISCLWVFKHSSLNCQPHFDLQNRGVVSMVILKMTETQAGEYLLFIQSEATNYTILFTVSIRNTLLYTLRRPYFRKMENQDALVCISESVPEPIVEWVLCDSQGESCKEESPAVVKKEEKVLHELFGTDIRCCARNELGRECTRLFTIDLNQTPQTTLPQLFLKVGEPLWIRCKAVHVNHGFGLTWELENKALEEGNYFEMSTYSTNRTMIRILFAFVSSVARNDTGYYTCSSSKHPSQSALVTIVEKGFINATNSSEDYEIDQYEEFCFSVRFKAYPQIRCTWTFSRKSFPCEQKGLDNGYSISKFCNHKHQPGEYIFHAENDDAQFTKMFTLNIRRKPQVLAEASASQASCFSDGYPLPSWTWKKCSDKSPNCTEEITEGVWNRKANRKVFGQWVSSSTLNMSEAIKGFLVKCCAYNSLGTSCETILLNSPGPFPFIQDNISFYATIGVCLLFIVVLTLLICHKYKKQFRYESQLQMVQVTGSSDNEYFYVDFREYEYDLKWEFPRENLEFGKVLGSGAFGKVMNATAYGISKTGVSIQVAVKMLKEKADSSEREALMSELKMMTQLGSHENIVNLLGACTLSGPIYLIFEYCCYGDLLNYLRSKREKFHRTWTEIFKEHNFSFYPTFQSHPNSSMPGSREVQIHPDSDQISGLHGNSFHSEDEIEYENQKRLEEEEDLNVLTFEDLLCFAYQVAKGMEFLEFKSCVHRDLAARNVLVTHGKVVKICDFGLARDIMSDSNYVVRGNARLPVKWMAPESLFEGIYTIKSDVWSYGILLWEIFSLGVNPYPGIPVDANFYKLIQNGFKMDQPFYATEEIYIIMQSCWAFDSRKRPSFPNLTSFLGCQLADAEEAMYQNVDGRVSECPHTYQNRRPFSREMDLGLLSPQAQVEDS
# Fibroblast growth factor receptor 4 (Homo sapiens), sequence (P22455 22-802 limits assumed): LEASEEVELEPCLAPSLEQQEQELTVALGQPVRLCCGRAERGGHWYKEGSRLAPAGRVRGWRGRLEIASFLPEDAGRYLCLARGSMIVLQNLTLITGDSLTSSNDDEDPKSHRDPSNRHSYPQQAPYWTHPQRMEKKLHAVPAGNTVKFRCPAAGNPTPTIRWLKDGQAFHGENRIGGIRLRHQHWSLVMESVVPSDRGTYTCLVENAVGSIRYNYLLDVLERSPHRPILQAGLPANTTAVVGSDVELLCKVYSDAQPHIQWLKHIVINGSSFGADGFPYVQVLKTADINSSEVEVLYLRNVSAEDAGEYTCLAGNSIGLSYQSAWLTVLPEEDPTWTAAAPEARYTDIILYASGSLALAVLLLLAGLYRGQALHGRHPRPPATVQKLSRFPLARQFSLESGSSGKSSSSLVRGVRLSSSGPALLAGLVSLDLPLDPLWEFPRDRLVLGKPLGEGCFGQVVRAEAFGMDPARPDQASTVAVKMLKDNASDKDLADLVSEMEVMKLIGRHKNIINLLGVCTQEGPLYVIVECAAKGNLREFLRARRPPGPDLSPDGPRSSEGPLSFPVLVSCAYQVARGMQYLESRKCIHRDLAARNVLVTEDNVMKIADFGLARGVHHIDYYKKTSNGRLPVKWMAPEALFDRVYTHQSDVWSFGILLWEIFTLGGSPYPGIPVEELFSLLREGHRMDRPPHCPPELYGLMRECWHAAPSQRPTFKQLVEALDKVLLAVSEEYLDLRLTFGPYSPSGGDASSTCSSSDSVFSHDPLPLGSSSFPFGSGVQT
# Inhibitor of nuclear factor kappa-B kinase subunit beta (Homo sapiens), sequence (O14920 whole entry, the tested form may be a part): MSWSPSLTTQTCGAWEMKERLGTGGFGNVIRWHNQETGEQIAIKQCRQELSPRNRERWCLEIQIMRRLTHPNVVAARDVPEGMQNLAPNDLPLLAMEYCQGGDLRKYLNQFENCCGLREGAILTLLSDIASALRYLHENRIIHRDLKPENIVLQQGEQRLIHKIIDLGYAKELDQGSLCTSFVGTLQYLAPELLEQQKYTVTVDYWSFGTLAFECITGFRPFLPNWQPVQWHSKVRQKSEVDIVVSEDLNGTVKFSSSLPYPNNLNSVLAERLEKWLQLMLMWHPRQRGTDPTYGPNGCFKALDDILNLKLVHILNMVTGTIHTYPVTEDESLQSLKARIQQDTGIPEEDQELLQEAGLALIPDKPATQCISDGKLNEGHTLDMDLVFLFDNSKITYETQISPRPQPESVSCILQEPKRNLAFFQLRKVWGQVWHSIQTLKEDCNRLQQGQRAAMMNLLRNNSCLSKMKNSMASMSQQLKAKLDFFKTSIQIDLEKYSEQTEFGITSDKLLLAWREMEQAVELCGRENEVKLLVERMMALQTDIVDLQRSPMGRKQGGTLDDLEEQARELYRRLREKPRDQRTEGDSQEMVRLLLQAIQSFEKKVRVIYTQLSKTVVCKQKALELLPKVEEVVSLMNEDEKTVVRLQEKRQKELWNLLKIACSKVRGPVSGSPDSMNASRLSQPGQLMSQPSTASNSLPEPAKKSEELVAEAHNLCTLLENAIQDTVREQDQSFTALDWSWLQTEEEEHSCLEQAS
# Phosphorylase b kinase gamma catalytic chain, skeletal muscle/heart isoform (Homo sapiens), sequence (Q16816 whole entry, looked up, the tested form may be a part, canonical isoform): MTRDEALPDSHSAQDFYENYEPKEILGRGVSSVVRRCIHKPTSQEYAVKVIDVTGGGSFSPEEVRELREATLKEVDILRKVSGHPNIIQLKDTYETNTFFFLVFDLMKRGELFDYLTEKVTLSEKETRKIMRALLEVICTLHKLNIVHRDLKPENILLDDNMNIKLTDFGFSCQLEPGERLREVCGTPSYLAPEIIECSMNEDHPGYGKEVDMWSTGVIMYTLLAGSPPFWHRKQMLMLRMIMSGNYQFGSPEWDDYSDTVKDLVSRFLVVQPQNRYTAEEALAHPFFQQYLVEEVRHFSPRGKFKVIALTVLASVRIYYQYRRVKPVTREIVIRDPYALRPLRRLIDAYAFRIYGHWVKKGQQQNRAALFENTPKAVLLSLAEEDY
# AP2-associated protein kinase 1 (Homo sapiens), sequence (Q2M2I8 whole entry, looked up, the tested form may be a part): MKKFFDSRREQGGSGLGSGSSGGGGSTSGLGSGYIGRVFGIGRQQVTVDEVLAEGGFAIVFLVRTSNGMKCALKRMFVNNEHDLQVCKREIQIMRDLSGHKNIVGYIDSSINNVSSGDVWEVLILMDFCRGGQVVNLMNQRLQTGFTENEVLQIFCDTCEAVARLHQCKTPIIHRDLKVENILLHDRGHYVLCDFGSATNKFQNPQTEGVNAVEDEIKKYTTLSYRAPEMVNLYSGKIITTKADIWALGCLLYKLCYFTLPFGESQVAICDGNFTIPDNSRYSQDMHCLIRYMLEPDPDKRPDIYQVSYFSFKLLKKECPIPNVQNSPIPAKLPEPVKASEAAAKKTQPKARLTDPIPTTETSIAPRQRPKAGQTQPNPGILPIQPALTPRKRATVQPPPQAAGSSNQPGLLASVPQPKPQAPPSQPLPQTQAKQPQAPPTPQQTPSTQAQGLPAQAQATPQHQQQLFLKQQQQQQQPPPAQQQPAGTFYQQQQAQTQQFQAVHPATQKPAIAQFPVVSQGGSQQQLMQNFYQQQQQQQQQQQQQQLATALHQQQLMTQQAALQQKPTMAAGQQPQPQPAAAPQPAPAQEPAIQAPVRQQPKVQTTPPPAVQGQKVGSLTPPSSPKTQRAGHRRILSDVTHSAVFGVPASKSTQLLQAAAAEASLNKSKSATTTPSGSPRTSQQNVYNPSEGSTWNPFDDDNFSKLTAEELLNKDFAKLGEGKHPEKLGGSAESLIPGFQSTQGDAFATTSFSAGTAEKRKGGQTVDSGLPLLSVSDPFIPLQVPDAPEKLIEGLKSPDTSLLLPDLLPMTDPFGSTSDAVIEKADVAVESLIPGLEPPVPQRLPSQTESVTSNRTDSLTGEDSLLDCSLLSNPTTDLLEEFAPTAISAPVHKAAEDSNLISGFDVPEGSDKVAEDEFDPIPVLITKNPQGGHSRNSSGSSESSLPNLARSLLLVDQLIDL
# Calcium/calmodulin-dependent protein kinase type II subunit alpha (Homo sapiens), sequence (Q9UQM7 whole entry, the tested form may be a part): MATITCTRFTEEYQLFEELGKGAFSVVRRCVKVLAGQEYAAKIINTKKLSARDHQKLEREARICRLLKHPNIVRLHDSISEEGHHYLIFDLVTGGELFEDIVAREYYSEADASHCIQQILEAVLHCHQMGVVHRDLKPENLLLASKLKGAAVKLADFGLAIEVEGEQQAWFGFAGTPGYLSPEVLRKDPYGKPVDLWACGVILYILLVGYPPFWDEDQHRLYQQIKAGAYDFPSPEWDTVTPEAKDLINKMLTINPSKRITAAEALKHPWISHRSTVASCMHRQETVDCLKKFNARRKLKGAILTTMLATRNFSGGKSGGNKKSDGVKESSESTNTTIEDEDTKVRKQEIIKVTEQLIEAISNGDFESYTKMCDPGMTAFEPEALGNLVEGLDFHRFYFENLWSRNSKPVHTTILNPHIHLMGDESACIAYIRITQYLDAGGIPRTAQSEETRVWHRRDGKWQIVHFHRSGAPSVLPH
# Phosphatidylinositol 4-phosphate 5-kinase type-1 gamma (Homo sapiens), sequence (O60331 whole entry, the tested form may be a part): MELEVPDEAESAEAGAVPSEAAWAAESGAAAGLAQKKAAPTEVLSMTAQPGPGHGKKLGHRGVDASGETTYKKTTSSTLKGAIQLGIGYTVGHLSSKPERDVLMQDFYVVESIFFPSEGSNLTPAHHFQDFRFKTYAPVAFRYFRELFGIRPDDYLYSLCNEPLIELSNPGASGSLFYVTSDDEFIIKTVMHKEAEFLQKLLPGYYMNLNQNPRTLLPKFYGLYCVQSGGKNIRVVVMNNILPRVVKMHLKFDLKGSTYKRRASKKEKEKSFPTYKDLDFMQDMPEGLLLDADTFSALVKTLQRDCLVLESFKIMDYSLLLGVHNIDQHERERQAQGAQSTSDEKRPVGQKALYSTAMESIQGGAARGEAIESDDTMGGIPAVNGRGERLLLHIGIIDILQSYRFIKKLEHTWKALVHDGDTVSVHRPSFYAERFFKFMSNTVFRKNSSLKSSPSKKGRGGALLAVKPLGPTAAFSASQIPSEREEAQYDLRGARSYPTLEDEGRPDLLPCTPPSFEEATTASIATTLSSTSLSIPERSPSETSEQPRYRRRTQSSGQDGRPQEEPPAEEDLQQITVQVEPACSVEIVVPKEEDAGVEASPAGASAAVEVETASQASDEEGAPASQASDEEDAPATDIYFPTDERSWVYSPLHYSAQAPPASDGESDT
smiles,measurement,setting,value
O=C(Nc1cc(-c2cn(CCNc3c4c(nc5ccccc35)CCCC4)nn2)ccn1)Nc1cccc2c1C1CCCCN1C2=O (racemic),Activity,[1],13%
same,Activity,[2],77%
same,Activity,[3],6.4%
same,Activity,[4],79%
same,Activity,[5],80%
same,Activity,[6],72%
same,Activity,[7],100%
same,Activity,[8],78%
same,Activity,[9],80%
same,Activity,[10],100%
same,Activity,[11],0.23%
same,Activity,[12],0.25%
same,Activity,[13],99%
same,Activity,[14],30%
same,Activity,[15],59%
same,Activity,[16],66%
same,Activity,[17],54%
same,Activity,[18],100%
same,Activity,[19],12%
same,Activity,[20],3.9%
same,Activity,[21],57%
same,Activity,[22],6.7%
same,Activity,[23],17%
same,Activity,[24],54%
